For orientation: melting point means the temperature of the solid-liquid transition. Take `CSc1nn(-c2ccccc2)cc1C(N)=S`: the melting point was in the range of 130 to 133 °C.

Regarding `O=Cc1ccncc1`, the melting point was -4 °C.

`O=C(O)c1cncc(-c2ccco2)c1` displayed a melting point of 261 to 263 °C.

The molecule `CCCCCCCl` had a melting point of -94 °C.

Consider `Cc1nc2scc(-c3ccccc3)c2c(=O)n1NC(=O)c1ccccc1Cl`, for which the melting point lay in the range of 209 to 210 °C.

Molecule `CC(C)COC(=O)c1ccc(C(=O)OCC(C)C)cc1` returned a melting point of 55 °C.

For `CSc1ccccc1C#N`, the melting point turned out to be 36 °C.

`C[C@@H]1CNCCN1` had a melting point of 86 to 91 °C.

For `O=C1CC(c2ccccc2)c2ccccc21` (centres undefined), the melting point came to 77 °C.

The molecule `Cc1nn(-c2ccccc2)c(C)c1C(=O)O` showed a melting point of 199 to 201 °C.

The molecule `O=Cc1cccc(-c2nccs2)c1` came in with a melting point of 67 to 68 °C.

Regarding `O=[N+]([O-])c1cncn1CCN1CCOCC1`, the melting point is 110 °C.

For the molecule `O=C(Cl)c1csc(-c2ccc(C(F)(F)F)cc2)n1`, the melting point is 96 to 98 °C.

In the case of `N#C/C(=N/Nc1cccc([N+](=O)[O-])c1)c1nc(-c2ccccc2)cs1`, the melting point was determined as 215 °C.

`COc1ccc(C=C(C(=O)O)C(=Cc2ccc(OC)cc2)C(=O)O)cc1` had a melting point of 263 °C.

In turn, `O=C(Oc1c(F)c(F)c(F)c(F)c1F)c1ccccc1OC1CCOCC1` registered a melting point of 62 to 64 °C.

For `Nc1cccc(S(=O)(=O)O)c1`, the melting point stood at 300 °C.

`CCc1ccc(N2C(=O)C=CC2=O)cc1`: the melting point came to 66 °C.

Molecule `CC(C)(C)c1ccc(-c2ccc(Br)cc2)cc1` displayed a melting point of 142 °C.

For `CC(=O)Nc1ccc(OCC(O)CNC(C)C)cc1` (centres undefined), the melting point came to 135 °C.

`CSc1cc(-c2ccc3ccccc3c2)c2c(=O)n(-c3ccccc3)n(C)c2c1` registered a melting point of 179 °C.

Take `Nc1ncnc2c1ncn2C1CC(O)C(CO)O1` (centres undefined): the melting point was in the range of 185 to 187 °C.

With `CC(=O)O[C@]12CC[C@@H](C(C)(C)C)C[C@H]1O[C@@H]2c1c(F)c(F)c(F)c(F)c1F`, the melting point came out at 83 °C.

`O=C(O)c1cn(S(=O)(=O)c2ccccc2)c2ccccc12` returned a melting point of 232 °C.

Regarding `O=C=NS(=O)(=O)c1ccc(F)cc1`, the melting point lay within 32 to 39 °C.

On to `CCCCCCCCCCF`, for which the melting point was -35 °C.

Molecule `CN(C)c1ccc(N)c([N+](=O)[O-])c1` registered a melting point of 119 to 124 °C.

For the molecule `O=C(O)c1ccc(N2C(=O)C3ON=C(C(=O)c4ccc(Cl)cc4)C3C2=O)cc1` (centres undefined), the melting point was 143 °C.

With `O=C(Nc1cccc(C(F)(F)F)c1)Nc1nnc(-c2ccc(Cl)cc2)o1`, the melting point was 236 to 238 °C.

As for `O=Cc1cccc(O)c1O`, the melting point fell in the range of 104 to 109 °C.

In turn, `Nc1ccc2scnc2c1` showed a melting point of 55 to 59 °C.

In turn, `Cc1nc2ccccc2[nH]c1=O` returned a melting point of 270 °C.

`CCCCCCCCc1ccc(C(=O)CCC(=O)O)cc1`: the melting point is 91 to 93 °C.

Consider `CCOC(=O)Nc1ccc2cc3ccc(N)c(CO)c3nc2c1`, for which the melting point was determined as 135 °C.

`O=C(O)c1cccnc1Cl` displayed a melting point of 176 to 178 °C.

Regarding `O=C(C(=S)Nc1ccc(I)cc1)c1ccccc1`, the melting point is 139 °C.

Molecule `NS(=O)(=O)c1ccc(SCCCCCO)cc1` gave a melting point of 103 °C.

As to `O=C(Cl)c1ccc(-c2csnn2)cc1`, the melting point lay in the range of 168 to 171 °C.

With `Cc1nc2ccccc2n1CCc1n[nH]c(=S)o1`, the melting point is 209 °C.

Turning to `C=C(NC(C)=O)C(=O)CCC(N)=O`, the melting point is 130 °C.

Consider `Nc1ccc(Oc2c(Cl)cccc2Cl)nc1`, for which the melting point lay in the range of 120 to 122 °C.

`COC(=O)c1cc(OC)c(C)c(OC)c1`: the melting point amounted to 104 °C.

For `ClCCI`, the melting point is -15.6 °C.

In the case of `Cc1nn(C)c(C(=O)O)c1Br`, the melting point was in the range of 225 to 226 °C.

The values are drawn from a melting point compilation (Tetko et al.).
